The target of one assay is T1, CDK6D3 (Homo sapiens, UniProt Q00534).
T1 construct: purchased Eurofins Pharma Discovery or Reaction Biology Corporation (service)
The experiment in a line: Kinase assay CDK6/D3 (radiometric or ADP Glo). The class given is biochemical. Particulars: apparent Ki calculated from Km (ATP) and IC50; read-out: CDK inhibition Ki CDK6D3. The essentials: (§1)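 Radiometric inhibition data for CDKs came from Eurofins or Reaction Biology profiling services; CDK4/D1 was also run in-house by ADP-Glo in […] pH 7.5, 20 mM MgCl2, 0.4 mM DTT, 0.1 mg/ml BSA with RB-CTF substrate, 40 min at 37 °C after ATP start. Ten-point 1:3 dilutions (10 μM–0.5 nM); four-parameter IC50, Ki from IC50 and ATP Km.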

The target in the next assay is T2, CDK4D1 (Homo sapiens, UniProt P11802).
T2 construct: purchased Eurofins Pharma Discovery or Reaction Biology Corporation (service)
T2 sequence (P11802 whole entry): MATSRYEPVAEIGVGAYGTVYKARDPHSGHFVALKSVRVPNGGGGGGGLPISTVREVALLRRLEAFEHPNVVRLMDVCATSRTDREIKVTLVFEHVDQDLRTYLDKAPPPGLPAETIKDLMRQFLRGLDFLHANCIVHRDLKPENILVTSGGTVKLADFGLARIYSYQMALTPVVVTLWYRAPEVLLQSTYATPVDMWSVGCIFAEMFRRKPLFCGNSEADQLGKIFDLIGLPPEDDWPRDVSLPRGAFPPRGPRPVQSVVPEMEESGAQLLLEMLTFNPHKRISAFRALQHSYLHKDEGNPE
T2 sequence (P24385 whole entry partner): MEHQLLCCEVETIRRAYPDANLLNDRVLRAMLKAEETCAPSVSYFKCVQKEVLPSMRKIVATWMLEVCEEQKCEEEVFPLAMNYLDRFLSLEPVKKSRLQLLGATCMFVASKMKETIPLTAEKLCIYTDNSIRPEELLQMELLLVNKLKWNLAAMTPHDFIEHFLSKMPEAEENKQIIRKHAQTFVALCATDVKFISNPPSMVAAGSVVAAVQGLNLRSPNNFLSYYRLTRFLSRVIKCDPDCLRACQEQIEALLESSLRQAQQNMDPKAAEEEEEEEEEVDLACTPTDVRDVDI
Description: Kinase assay CDK4/D1 (radiometric or ADP Glo). To be noted: apparent Ki calculated from Km (ATP) and IC50; read-out: CDK inhibition Ki CDK4D1. It is filed as biochemical. An outline of the steps: (§2)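 ADP formed by CDK4/D1 acting on the retinoblastoma C-terminal fragment is quantified by luminescence after a 40 min, 37° C reaction in buffer with 20 mM MgCl2, 0.4 mM DTT and 0.1 mg/ml BSA at pH 7.5. The other three CDKs are assayed radiometrically.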

In a further assay the test system is MV4-11. The experiment in a line: Cell viability assay (resazurin, leukemia cell line) MV4-11. The class given is cell-based, human. Particulars: Homo sapiens, MV4-11, 72 h; read-out: Anti-proliferative activity GI50 MV4-11. An excerpt:
(§3) Compounds from Example 1 were subjected to a standard MTT (3-(4,5-dimethylthiazol-2-yl)-2,5-diphenyltetrazolium bromide) and resazurin assays on solid tumour cell lines and leukemia cell lines, respectively, as previously reported (Wang S et al., J Med Chem 47:1662-1675, 2004 and Diab S. et al. CheMedChem 9:962-972, 2014).
(The colour change of resazurin is a common sign of viable cells or microbes.)

For another assay, the target named is CDK1B (Homo sapiens, UniProt P06493). The experiment in a line: Kinase assay CDK1B (radiometric profiling service). Particulars: apparent Ki calculated from Km (ATP) and IC50; read-out: CDK inhibition Ki CDK1B. The class given is biochemical. The essentials:
as §2

In a further assay the target is T3, CDK9T1 (Homo sapiens, UniProt P50750).
T3 construct: purchased Eurofins Pharma Discovery or Reaction Biology Corporation (service)
T3 sequence (P50750 whole entry): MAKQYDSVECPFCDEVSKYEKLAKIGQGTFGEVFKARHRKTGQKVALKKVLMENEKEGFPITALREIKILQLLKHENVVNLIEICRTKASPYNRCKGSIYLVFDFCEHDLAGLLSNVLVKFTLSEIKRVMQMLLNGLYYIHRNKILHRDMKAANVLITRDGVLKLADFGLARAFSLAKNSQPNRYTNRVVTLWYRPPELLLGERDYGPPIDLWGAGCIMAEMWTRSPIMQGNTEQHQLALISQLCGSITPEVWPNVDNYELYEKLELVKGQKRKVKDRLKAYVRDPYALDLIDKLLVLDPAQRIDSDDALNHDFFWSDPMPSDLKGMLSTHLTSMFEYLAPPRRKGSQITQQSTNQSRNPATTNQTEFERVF
T3 sequence (O60563 whole entry partner): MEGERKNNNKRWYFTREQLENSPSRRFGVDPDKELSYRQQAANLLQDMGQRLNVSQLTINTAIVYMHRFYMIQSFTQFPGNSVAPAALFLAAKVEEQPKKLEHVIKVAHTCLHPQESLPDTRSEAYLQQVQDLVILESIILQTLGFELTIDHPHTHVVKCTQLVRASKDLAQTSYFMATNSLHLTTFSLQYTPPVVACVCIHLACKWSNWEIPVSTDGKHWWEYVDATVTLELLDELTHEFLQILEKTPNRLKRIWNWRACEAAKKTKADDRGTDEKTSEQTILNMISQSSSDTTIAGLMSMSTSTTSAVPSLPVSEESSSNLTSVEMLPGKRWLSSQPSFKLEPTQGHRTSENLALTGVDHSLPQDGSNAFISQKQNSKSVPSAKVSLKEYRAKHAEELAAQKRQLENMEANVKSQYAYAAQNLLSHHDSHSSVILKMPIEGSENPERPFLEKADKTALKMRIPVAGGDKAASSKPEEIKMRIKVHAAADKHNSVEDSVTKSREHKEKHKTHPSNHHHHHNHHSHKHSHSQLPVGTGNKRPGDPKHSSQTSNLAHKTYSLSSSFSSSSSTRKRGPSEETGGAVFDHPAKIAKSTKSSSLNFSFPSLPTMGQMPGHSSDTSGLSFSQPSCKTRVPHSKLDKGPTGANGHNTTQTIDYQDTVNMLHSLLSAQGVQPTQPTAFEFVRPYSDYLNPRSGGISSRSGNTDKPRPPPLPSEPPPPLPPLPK
Description: Kinase assay CDK9/T1 (radiometric or ADP Glo). It is filed as biochemical. To be noted: apparent Ki calculated from Km (ATP) and IC50; read-out: CDK inhibition Ki CDK9T1. The essentials: as §1

The test system of a further assay is MDA-MB-453. The experiment in a line: Cell viability assay (MTT, solid tumour cell line) MDA-MB-453. It is filed as cell-based, human. Particulars: Homo sapiens, MDA-MB-453, 72 h; read-out: Anti-proliferative activity GI50 MDA-MB-453.
From the text: as §3

For the next assay, the target named is CDK 2A (Homo sapiens, UniProt P24941). Description: Kinase assay CDK2A (radiometric profiling service). The class given is biochemical. To be noted: apparent Ki calculated from Km (ATP) and IC50; read-out: CDK inhibition Ki CDK 2A. The essentials: as §2
A further assay has as its target CDK7H (Homo sapiens, UniProt P50613). Description: Kinase assay CDK7H (radiometric profiling service). It is filed as biochemical. Particulars: apparent Ki calculated from Km (ATP) and IC50; read-out: CDK inhibition Ki CDK7H. An outline of the steps:
as §2

Here are results for seven molecules from USRE49850E1, “N-(pyridin-2-yl)-4-(thiazol-5-yl)pyrimidin-2-amine derivatives as therapeutic compounds” (AUCENTRA THERAPEUTICS PTY LTD, priority 2015, dated 2024).

CDK1B, sequence (P06493 whole entry): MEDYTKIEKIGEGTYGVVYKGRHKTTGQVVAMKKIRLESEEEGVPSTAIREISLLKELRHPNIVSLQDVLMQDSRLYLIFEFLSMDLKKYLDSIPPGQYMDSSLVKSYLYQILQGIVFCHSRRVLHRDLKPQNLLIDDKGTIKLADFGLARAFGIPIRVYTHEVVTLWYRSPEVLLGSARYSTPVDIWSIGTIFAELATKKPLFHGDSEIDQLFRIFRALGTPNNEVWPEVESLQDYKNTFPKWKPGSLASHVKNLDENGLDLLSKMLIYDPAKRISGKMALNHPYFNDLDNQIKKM
CDK1B, sequence (P14635 whole entry partner): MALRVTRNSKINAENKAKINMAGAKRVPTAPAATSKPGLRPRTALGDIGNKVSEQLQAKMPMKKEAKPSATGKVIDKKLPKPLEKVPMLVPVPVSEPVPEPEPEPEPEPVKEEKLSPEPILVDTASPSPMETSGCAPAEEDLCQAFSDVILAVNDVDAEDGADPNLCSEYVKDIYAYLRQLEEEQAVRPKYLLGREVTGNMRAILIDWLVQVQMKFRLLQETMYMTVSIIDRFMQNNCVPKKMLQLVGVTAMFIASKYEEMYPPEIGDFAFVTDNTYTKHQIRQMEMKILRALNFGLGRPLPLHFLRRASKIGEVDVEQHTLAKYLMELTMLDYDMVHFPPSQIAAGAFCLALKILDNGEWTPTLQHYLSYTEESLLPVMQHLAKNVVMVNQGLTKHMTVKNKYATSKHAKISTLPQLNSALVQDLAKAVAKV
CDK7H, sequence (P50613 whole entry): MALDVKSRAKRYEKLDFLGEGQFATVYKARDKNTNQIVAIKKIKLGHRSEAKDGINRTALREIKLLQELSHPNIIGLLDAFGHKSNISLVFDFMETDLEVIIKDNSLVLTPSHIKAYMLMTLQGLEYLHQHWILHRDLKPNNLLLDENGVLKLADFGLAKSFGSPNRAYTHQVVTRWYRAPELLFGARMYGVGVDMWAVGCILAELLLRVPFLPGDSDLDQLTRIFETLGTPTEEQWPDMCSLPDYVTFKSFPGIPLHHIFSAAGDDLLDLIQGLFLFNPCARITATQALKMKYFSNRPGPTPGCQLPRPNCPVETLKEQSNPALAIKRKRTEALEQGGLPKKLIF
CDK7H, sequence (P51946 whole entry partner): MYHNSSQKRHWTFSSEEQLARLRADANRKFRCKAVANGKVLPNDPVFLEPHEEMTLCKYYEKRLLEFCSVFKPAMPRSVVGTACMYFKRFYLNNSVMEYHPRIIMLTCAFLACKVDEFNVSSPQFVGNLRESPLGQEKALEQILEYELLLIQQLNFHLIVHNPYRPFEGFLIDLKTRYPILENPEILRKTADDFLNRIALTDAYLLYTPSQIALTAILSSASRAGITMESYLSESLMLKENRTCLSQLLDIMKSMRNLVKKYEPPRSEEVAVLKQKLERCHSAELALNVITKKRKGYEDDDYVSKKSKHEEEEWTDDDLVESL
CDK7H, sequence (P51948 whole entry partner): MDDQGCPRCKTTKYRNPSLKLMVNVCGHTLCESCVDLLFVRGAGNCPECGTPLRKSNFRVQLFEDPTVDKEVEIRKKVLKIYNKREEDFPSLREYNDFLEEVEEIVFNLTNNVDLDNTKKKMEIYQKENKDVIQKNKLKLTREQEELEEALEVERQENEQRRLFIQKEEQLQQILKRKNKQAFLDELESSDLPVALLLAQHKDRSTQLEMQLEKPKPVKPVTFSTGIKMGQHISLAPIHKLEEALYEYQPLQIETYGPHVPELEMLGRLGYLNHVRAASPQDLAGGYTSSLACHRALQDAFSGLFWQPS
T1 sequence (Q00534 whole entry): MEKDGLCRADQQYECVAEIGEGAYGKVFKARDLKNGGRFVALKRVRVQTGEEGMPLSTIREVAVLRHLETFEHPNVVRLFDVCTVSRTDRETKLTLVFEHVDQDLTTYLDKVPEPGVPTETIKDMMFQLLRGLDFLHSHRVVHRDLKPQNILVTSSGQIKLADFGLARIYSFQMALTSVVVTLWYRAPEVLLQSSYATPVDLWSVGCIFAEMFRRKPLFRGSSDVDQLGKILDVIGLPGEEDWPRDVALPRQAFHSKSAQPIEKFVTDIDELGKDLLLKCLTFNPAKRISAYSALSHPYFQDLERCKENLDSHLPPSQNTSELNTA
T1 sequence (P30281 whole entry partner): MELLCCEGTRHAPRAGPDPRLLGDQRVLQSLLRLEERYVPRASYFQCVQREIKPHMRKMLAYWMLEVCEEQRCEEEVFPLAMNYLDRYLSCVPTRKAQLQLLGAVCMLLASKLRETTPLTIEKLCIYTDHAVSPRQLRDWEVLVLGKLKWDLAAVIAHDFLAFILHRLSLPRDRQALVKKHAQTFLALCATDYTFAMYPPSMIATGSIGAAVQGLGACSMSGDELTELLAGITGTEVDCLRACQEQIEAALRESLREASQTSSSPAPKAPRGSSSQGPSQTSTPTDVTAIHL

As for `CC(=O)N1CCN(c2ccc(Nc3ncc(C#N)c(-c4sc(C)nc4C)n3)nc2)CC1` [Compound 6, 2-((5-(4-acetylpiperazin-1-yl)pyridin-2-yl)amino)-4-(2,4-dimethylthiazol-5-yl)pyrimidine-5-carbonitrile], the Ki at CDK6D3 is 201 nM; on CDK4D1 it was 119 nM; at CDK1B it was greater than 5000 nM; on CDK9T1, greater than 5000 nM; on CDK 2A, greater than 5000 nM; on CDK7H, greater than 5000 nM. Moreover, the GI50 – broadly, the concentration giving 50% growth inhibition – in the assay on MV4-11 was 2130 ± 969 nM; in the assay on MDA-MB-453, greater than 10000 nM.
`CC(=O)N1CCN(c2ccc(Nc3nccc(-c4sc(SC(C)C)nc4C)n3)nc2)CC1` [Compound 25, 1-(4-(6-((4-(2-(isopropylthio)-4-methylthiazol-5-yl)pyrimidin-2-yl)amino)pyridin-3-yl)piperazin-1-yl)ethan-1-one]: the Ki at CDK6D3 was 20 nM; on CDK4D1 it was 5 nM; on CDK1B, greater than 5000 nM; at CDK9T1 it was greater than 5000 nM; on CDK 2A it was 75 nM; on CDK7H, greater than 5000 nM. Besides, the GI50 with MV4-11 was determined as 537 ± 117 nM; with MDA-MB-453, 514 ± 50 nM.
In the case of `Cc1nc(C)c(-c2nc(Nc3ccc(N4CCN(C)CC4)cn3)ncc2C#N)s1` [Compound 5, 4-(2,4-dimethylthiazol-5-yl)-2-((5-(4-methylpiperazin-1-yl)pyridin-2-yl)amino)pyrimidine-5-carbonitrile], the Ki at CDK6D3 was 27 nM; at CDK4D1, 70 nM; on CDK1B it was greater than 5000 nM; at CDK9T1 it was greater than 5000 nM; at CDK 2A, greater than 5000 nM; at CDK7H, greater than 5000 nM. Besides, the GI50 with MV4-11 worked out at 500 ± 247 nM; in the assay on MDA-MB-453, 914 ± 98 nM.
Regarding `CCn1c(C)c(-c2ccnc(Nc3ccc(N4CCN(C)CC4)cn3)n2)sc1=O` [Compound 94, 3-ethyl-4-methyl-5-(2-((5-(4-methylpiperazin-1-yl)pyridin-2-yl)amino)pyrimidin-4-yl)thiazol-2(3H)-one], the Ki at CDK6D3 was 320 nM; at CDK4D1, 33 nM; at CDK1B it was 3660 nM; at CDK9T1 it was 1580 nM; at CDK 2A, 1340 nM; on CDK7H, 1260 nM. The figures for the GI50 with MV4-11 and in the assay on MDA-MB-453 were 1830 ± 194 nM and greater than 10000 nM, respectively.
Regarding `CNc1nc(C)c(-c2ccnc(Nc3ccc(N4CCN(C(C)=O)CC4)cn3)n2)s1` [Compound 33, 1-(4-(6-((4-(4-methyl-2-(methylamino)thiazol-5-yl)pyrimidin-2-yl)amino)pyridin-3-yl)piperazin-1-yl)ethan-1-one], the Ki at CDK6D3 is 3030 nM; at CDK4D1, 578 nM; on CDK1B it was 3100 nM; at CDK9T1 it was greater than 5000 nM; on CDK 2A, 310 nM; on CDK7H it was greater than 5000 nM. For the same molecule, the GI50 in the assay on MV4-11 is 154 ± 74 nM; in the assay on MDA-MB-453, 5840 ± 279 nM.
In the case of `CC(=O)N1CCN(c2ccc(Nc3ncc(F)c(-c4sc(N(C)C)nc4C)n3)nc2)CC1` [Compound 49, 1-(4-(6-((4-(2-(dimethylamino)-4-methylthiazol-5-yl)-5-fluoropyrimidin-2-yl)amino)pyridin-3-yl)piperazin-1-yl)ethan-1-one], the Ki was 366 nM at CDK6D3; 24 nM at CDK4D1; greater than 5000 nM on CDK1B; greater than 5000 nM on CDK9T1; 1040 nM on CDK 2A; greater than 5000 nM on CDK7H. The GI50 in the assay with MV4-11 came out at 208 ± 30 nM; with MDA-MB-453 it was 2370 ± 26 nM.
In the case of `CC(=O)N1CCN(c2ccc(Nc3ncc(F)c(-c4sc(NC5CCCC5)nc4C)n3)nc2)CC1` [Compound 69, 1-(4-(6-((4-(2-(cyclopentylamino)-4-methylthiazol-5-yl)-5-fluoropyrimidin-2-yl)amino)pyridin-3-yl)piperazin-1-yl)ethan-1-one], the Ki on CDK6D3 was 23 nM; at CDK4D1 it was 34 nM; on CDK1B, greater than 5000 nM; at CDK9T1 it was 4990 nM; on CDK 2A, 228 nM; on CDK7H it was greater than 5000 nM. Moreover, the GI50 with MV4-11 came out at 15 ± 2 nM; in the assay on MDA-MB-453, 8110 ± 1150 nM.
